row,Compound,melting point
1,"CN1CCN(c2cccc3c2C[C@H](NC(=O)c2ccc(N4CCNC(=O)CC4)cc2)CO3)CC1 [Example 35, (S)-N-[5-(4-Methylpiperazin-1-yl)-3,4-dihydro-2H-1-benzopyran-3-yl]-4-(hexa hydro-1,4-diazepin-5-on-1-yl)benzamide]",244 to 247 °C (dec.)
2,"CN1CCN(c2cccc3c2C[C@H](NC(=O)c2ccc(N4CCOCC4)cc2)CO3)CC1 [Example 14, (S)-N-[5-(4-Methylpiperazin-1-yl)-3,4-dihydro-2H-1-benzopyran-3-yl]-4-morpholinobenzamide]",210 to 212 °C
3,"CN1CCN(c2cccc3c2C[C@H](NC(=O)c2ccc(C(=O)N4CCOCC4)cc2)CO3)CC1 [Example 45, (S)-N-[5-(4-Methylpiperazin-1-yl)-3,4 dihydro-2H-1-benzopyran-3-yl)-4-(morpholinocarbonyl)benzamide]",222 °C (dec.)
4,"CN1CCN(c2cccc3c2C[C@H](NC(=O)c2ccc(C(F)(F)F)cc2)CO3)CC1 [Example 19, (S)-N-[5-(4-Methylpiperazin-1-yl)-3,4-dihydro-2H-1-benzopyran-3-yl]-4-trifluoromethylbenzamide]",212 to 214 °C
5,"CN1CCN(c2cccc3c2C[C@H](NC(=O)c2ccc(N4CCN(CCO)CC4)cc2)CO3)CC1 [Example 48, (S)-N-[5-(4-Methylpiperazin-1-yl)-3,4 dihydro-2H-1-benzopyran-3-yl]-4-[4-(2-hydroxyethyl)-piperazin-1-yl]benzamide]",211 to 212 °C
6,"CN1CCN(c2cccc3c2C[C@H](NC(=O)c2ccc(C(F)(F)F)cc2C(F)(F)F)CO3)CC1 [Example 28, (S)-N-[5-(4-Methylpiperazin-1-yl)-3,4-dihydro-2H-1-benzopyran-3-yl]-2,4-bis(trifluoromethyl)benzamide]",202 to 203 °C
7,"CC(=O)N1CCN(c2ccc(C(=O)N[C@@H]3COc4cccc(N5CCN(C)CC5)c4C3)cc2)CC1 [Example 44, (S)-N-[5-(4-Methylpiperazin-1-yl)-3,4 dihydro-2H-1-benzopyran-3-yl]-4-(4-acetylpiperazin-1-yl)benzamide]",88 °C (dec.)
8,"CN1CCN(c2cccc3c2C[C@H](NC(=O)c2ccc(C(=O)N(C)C)cc2)CO3)CC1 [Example 46, (S)-N-[5-(4-Methylpiperazin-1-yl)-3,4-dihydro-2H-benzopyran-3-yl)-4-(N,N-dimethylaminocarbonyl)benzamide]",219 °C (dec.)
9,"CN1CCN(c2cccc3c2C[C@H](NC(=O)c2ccc(N4CCNCC4)cc2)CO3)CC1 [Example 43, (S)-N-[5-(4-Methylpiperazin-1-yl)-3,4 dihydro-2H-1-benzopyran-3-yl]-4-(piperazin-1-yl)benzamide]",> 102 °C
